Experiment: Repeated-treatment efficacy for removing an intravenous dose of 238Pu (excretion, tissue retention, clinical observations), female and male arms
Assay type: in vivo, Swiss-Webster mice
Settings: female mice; for ^238Pu percent increase in excretion, Total Excretion / ^238Pu percent increase in excretion, Total Feces / ^238Pu percent increase in excretion, Total Urine: over untreated control group; for ^238Pu percent tissue reduction, GI Tract / ^238Pu percent tissue reduction, Kidney / ^238Pu percent tissue reduction, Liver / ^238Pu percent tissue reduction, Soft Tissue / ^238Pu percent tissue reduction, Total Body / ^238Pu percent tissue reduction, Total Bone: vs untreated control group
Procedure: The objective of this study was to characterize the efficacy of 3,4,3-L1(1,2-HOPO) at enhancing elimination from an internal plutonium burden in female and male Swiss-Webster mice administered a soluble citrate complex of ^238Pu and treated multiple times, starting at 24 hours after the exposure. Efficacy was evaluated by comparing the tissue contents, urinary and fecal excretions of ^238Pu in treated animals versus untreated animals.
The medical countermeasure 3,4,3-L1(1,2-HOPO) was administered parenterally (ip) or orally (po) via consecutive injections or gavages (six daily or twelve twice daily) starting at 24 hours post contamination at the following four selected doses: 30 μmol/kg ip, 150 μmol/kg po, 300 μmol/kg po, and 600 μmol/kg po (equivalent to respective approximate human doses range of […], using the accepted conversion system of mouse doses into human equivalent doses—HED—based on body surface area). Oral doses also included the permeability enhancer selected during formulation development work.
• Challenge isotope: ^238Pu • Challenge dose: 25 nCi (i.e., approximately 0.8 μCi/kg) • Route of contamination: Intravenous (iv) tail-vein • Route of treatment: Intraperitoneal Injection (ip) or Oral (po) • Frequency of treatment: Multiple (once- or twice-daily for 6 days) doses, starting 24 hr postcontamination • Treatment dose calculation: Dose calculations (mg/kg or μmol/kg) for the decorporation agent were based on the individual body weight measured after contamination. • Study Duration: 11 days, in-life
c. […] Test article and control dose formulations were prepared within 1 day of dose administration, by weighing out the appropriate amount of test article, dispersing in vehicle. For ip solutions, the test article was used alone, while for oral suspensions, a mixture of test article and excipient (90:10, w:w) was used. The pH was adjusted to 7.0-7.4 for ip administration and 5.0-5.5 for oral administration with sterile NaOH. Dose formulations were prepared at room temperature and filter-sterilized. • Storage: 2-8° C.; refrigerated; protected from light. • Characterization: The concentration of each test article formulation was verified by high-performance liquid chromatography-mass spectrometry. • Test Article Handling: Test, reference, and control article formulations were handled with the use of eye protection, gloves, and a protective laboratory coat. • Correct Dose Assurance: The test article was weighed with calibrated balances. The administration of each dose formulation was properly documented, and the amount administered to each animal recorded.
e. Experimental Procedures (In-Life Evaluations and Euthanasia) • Contamination: Single administration by intravenous (iv) tail-vein injection (0.2 mL injection volume) under isoflurane anesthesia. Three standard 0.2 mL injections were performed into polyethylene bottles and pre-loaded with aliquots of concentrated nitric acid on each injection day. Six female and six male mice were culled for necropsy 1 hr post-contamination and were used as standards. A11 standards were processed and counted together with the final samples to allow verification of the contamination dose. • Dose Administration: Single administration by intraperitoneal injection (ip) or oral gavage (po) under isoflurane anesthesia. • Mortality/Morbidity: Assessed at least once daily. • Clinical Observations: Recorded once daily (4 hr post-dose on day of treatment), or more often as clinical signs warranted. […]

[1] = 30 μmol/kg, IP, 11-day necropsy
[2] = 150 μmol/kg, 2 doses PO, 7-day necropsy
[3] = 300 μmol/kg, 1 dose PO, 7-day necropsy
[4] = 300 μmol/kg, 1 dose PO, 11-day necropsy
[5] = 300 μmol/kg, 1 doses PO, 7-day necropsy
[6] = 300 μmol/kg, 2 doses PO, 7-day necropsy
[7] = 300 μmol/kg, PO, 11-day necropsy
[8] = 600 μmol/kg, 1 dose PO, 7-day necropsy
[9] = 600 μmol/kg, 1 dose PO, 11-day necropsy
[10] = 600 μmol/kg, PO, 11-day necropsy

O=C(NCCCN(CCCCN(CCCNC(=O)c1cccc(=O)n1O)C(=O)c1cccc(=O)n1O)C(=O)c1cccc(=O)n1O)c1cccc(=O)n1O [Formulation 343]
^238Pu excretion, Total Excretion, Avg [1]: 79.37 percent recovered dose | ^238Pu excretion, Total Feces, Avg [1]: 41.80 percent recovered dose | ^238Pu excretion, Total Urine, Avg [1]: 37.57 percent recovered dose | ^238Pu retention, GI Tract, Avg [1]: 0.59 percent recovered dose | ^238Pu retention, Kidney, Avg [1]: 0.11 percent recovered dose | ^238Pu retention, Liver, Avg [1]: 2.79 percent recovered dose | ^238Pu retention, Soft Tissue, Avg [1]: 1.40 percent recovered dose | ^238Pu retention, Total Body, Avg [1]: 20.63 percent recovered dose | ^238Pu retention, Total Bone, Avg [1]: 15.74 percent recovered dose | ^238Pu percent increase in excretion, Total Excretion [1]: 157.74% | ^238Pu percent increase in excretion, Total Feces [1]: 146.77% | ^238Pu percent increase in excretion, Total Urine [1]: 172.05% | ^238Pu percent tissue reduction, GI Tract [1]: 55.96% | ^238Pu percent tissue reduction, Kidney [1]: 58.43% | ^238Pu percent tissue reduction, Liver [1]: 76.81% | ^238Pu percent tissue reduction, Soft Tissue [1]: 50.90% | ^238Pu percent tissue reduction, Total Body [1]: 58.48% | ^238Pu percent tissue reduction, Total Bone [1]: 52.58% | ^238Pu excretion, Total Excretion, Avg [2]: 62.18 percent recovered dose | ^238Pu excretion, Total Feces, Avg [2]: 33.16 percent recovered dose | ^238Pu excretion, Total Urine, Avg [2]: 29.02 percent recovered dose | ^238Pu retention, GI Tract, Avg [2]: 1.20 percent recovered dose | ^238Pu retention, Kidney, Avg [2]: 0.23 percent recovered dose | ^238Pu retention, Liver, Avg [2]: 12.83 percent recovered dose | ^238Pu retention, Soft Tissue, Avg [2]: 1.64 percent recovered dose | ^238Pu retention, Total Body, Avg [2]: 37.82 percent recovered dose | ^238Pu retention, Total Bone, Avg [2]: 21.92 percent recovered dose | ^238Pu percent increase in excretion, Total Excretion [2]: 129.85% | ^238Pu percent increase in excretion, Total Feces [2]: 146.48% | ^238Pu percent increase in excretion, Total Urine [2]: 114.93% | ^238Pu percent tissue reduction, GI Tract [2]: 35.66% | ^238Pu percent tissue reduction, Kidney [2]: 43.29% | ^238Pu percent tissue reduction, Liver [2]: 31.41% | ^238Pu percent tissue reduction, Soft Tissue [2]: 19.55% | ^238Pu percent tissue reduction, Total Body [2]: 27.43% | ^238Pu percent tissue reduction, Total Bone [2]: 24.67% | ^238Pu excretion, Total Excretion, Avg [3]: 63.26 percent recovered dose | ^238Pu excretion, Total Feces, Avg [3]: 34.34 percent recovered dose | ^238Pu excretion, Total Urine, Avg [3]: 28.92 percent recovered dose | ^238Pu retention, GI Tract, Avg [3]: 1.20 percent recovered dose | ^238Pu retention, Kidney, Avg [3]: 0.26 percent recovered dose | ^238Pu retention, Liver, Avg [3]: 10.22 percent recovered dose | ^238Pu retention, Soft Tissue, Avg [3]: 1.74 percent recovered dose | ^238Pu retention, Total Body, Avg [3]: 36.74 percent recovered dose | ^238Pu retention, Total Bone, Avg [3]: 23.31 percent recovered dose | ^238Pu percent increase in excretion, Total Excretion [3]: 142.38% | ^238Pu percent increase in excretion, Total Feces [3]: 197.06% | ^238Pu percent increase in excretion, Total Urine [3]: 107.09% | ^238Pu retention, GI Tract, Avg [4]: 1.02 percent recovered dose | ^238Pu retention, Kidney, Avg [4]: 0.17 percent recovered dose | ^238Pu retention, Liver, Avg [4]: 6.02 percent recovered dose | ^238Pu retention, Soft Tissue, Avg [4]: 2.06 percent recovered dose | ^238Pu retention, Total Body, Avg [4]: 28.11 percent recovered dose | ^238Pu retention, Total Bone, Avg [4]: 18.85 percent recovered dose | ^238Pu percent tissue reduction, GI Tract [4]: 25.61% | ^238Pu percent tissue reduction, Kidney [4]: 37.82% | ^238Pu percent tissue reduction, Liver [4]: 55.06% | ^238Pu percent tissue reduction, Soft Tissue [4]: 22.98% | ^238Pu percent tissue reduction, Total Body [4]: 42.51% | ^238Pu percent tissue reduction, Total Bone [4]: 39.58% | ^238Pu percent tissue reduction, GI Tract [5]: 11.06% | ^238Pu percent tissue reduction, Kidney [5]: 20.17% | ^238Pu percent tissue reduction, Liver [5]: 38.39% | ^238Pu percent tissue reduction, Soft Tissue [5]: 25.25% | ^238Pu percent tissue reduction, Total Body [5]: 33.88% | ^238Pu percent tissue reduction, Total Bone [5]: 33.33% | ^238Pu excretion, Total Excretion, Avg [6]: 66.57 percent recovered dose | ^238Pu excretion, Total Feces, Avg [6]: 35.68 percent recovered dose | ^238Pu excretion, Total Urine, Avg [6]: 30.90 percent recovered dose | ^238Pu retention, GI Tract, Avg [6]: 1.25 percent recovered dose | ^238Pu retention, Kidney, Avg [6]: 0.18 percent recovered dose | ^238Pu retention, Liver, Avg [6]: 6.85 percent recovered dose | ^238Pu retention, Soft Tissue, Avg [6]: 1.62 percent recovered dose | ^238Pu retention, Total Body, Avg [6]: 33.43 percent recovered dose | ^238Pu retention, Total Bone, Avg [6]: 23.54 percent recovered dose | ^238Pu percent increase in excretion, Total Excretion [6]: 139.02% | ^238Pu percent increase in excretion, Total Feces [6]: 157.58% | ^238Pu percent increase in excretion, Total Urine [6]: 122.37% | ^238Pu percent tissue reduction, GI Tract [6]: 33.06% | ^238Pu percent tissue reduction, Kidney [6]: 56.34% | ^238Pu percent tissue reduction, Liver [6]: 63.39% | ^238Pu percent tissue reduction, Soft Tissue [6]: 20.76% | ^238Pu percent tissue reduction, Total Body [6]: 35.85% | ^238Pu percent tissue reduction, Total Bone [6]: 19.10% | ^238Pu excretion, Total Excretion, Avg [7]: 71.89 percent recovered dose | ^238Pu excretion, Total Feces, Avg [7]: 37.63 percent recovered dose | ^238Pu excretion, Total Urine, Avg [7]: 34.27 percent recovered dose | ^238Pu percent increase in excretion, Total Excretion [7]: 140.66% | ^238Pu percent increase in excretion, Total Feces [7]: 162.86% | ^238Pu percent increase in excretion, Total Urine [7]: 122.35% | ^238Pu excretion, Total Excretion, Avg [8]: 67.37 percent recovered dose | ^238Pu excretion, Total Feces, Avg [8]: 30.80 percent recovered dose | ^238Pu excretion, Total Urine, Avg [8]: 36.57 percent recovered dose | ^238Pu retention, GI Tract, Avg [8]: 1.24 percent recovered dose | ^238Pu retention, Kidney, Avg [8]: 0.23 percent recovered dose | ^238Pu retention, Liver, Avg [8]: 12.48 percent recovered dose | ^238Pu retention, Soft Tissue, Avg [8]: 1.62 percent recovered dose | ^238Pu retention, Total Body, Avg [8]: 32.63 percent recovered dose | ^238Pu retention, Total Bone, Avg [8]: 17.06 percent recovered dose | ^238Pu percent increase in excretion, Total Excretion [8]: 151.63% | ^238Pu percent increase in excretion, Total Feces [8]: 176.75% | ^238Pu percent increase in excretion, Total Urine [8]: 135.42% | ^238Pu percent tissue reduction, GI Tract [8]: 8.30% | ^238Pu percent tissue reduction, Kidney [8]: 29.85% | ^238Pu percent tissue reduction, Liver [8]: 24.79% | ^238Pu percent tissue reduction, Soft Tissue [8]: 30.25% | ^238Pu percent tissue reduction, Total Body [8]: 41.28% | ^238Pu percent tissue reduction, Total Bone [8]: 51.23% | ^238Pu retention, GI Tract, Avg [9]: 0.83 percent recovered dose | ^238Pu retention, Kidney, Avg [9]: 0.14 percent recovered dose | ^238Pu retention, Liver, Avg [9]: 5.60 percent recovered dose | ^238Pu retention, Soft Tissue, Avg [9]: 2.01 percent recovered dose | ^238Pu retention, Total Body, Avg [9]: 26.78 percent recovered dose | ^238Pu retention, Total Bone, Avg [9]: 18.20 percent recovered dose | ^238Pu percent tissue reduction, GI Tract [9]: 39.39% | ^238Pu percent tissue reduction, Kidney [9]: 48.77% | ^238Pu percent tissue reduction, Liver [9]: 58.17% | ^238Pu percent tissue reduction, Soft Tissue [9]: 24.63% | ^238Pu percent tissue reduction, Total Body [9]: 45.22% | ^238Pu percent tissue reduction, Total Bone [9]: 41.64% | ^238Pu excretion, Total Excretion, Avg [10]: 73.22 percent recovered dose | ^238Pu excretion, Total Feces, Avg [10]: 34.70 percent recovered dose | ^238Pu excretion, Total Urine, Avg [10]: 38.52 percent recovered dose | ^238Pu percent increase in excretion, Total Excretion [10]: 143.25% | ^238Pu percent increase in excretion, Total Feces [10]: 150.20% | ^238Pu percent increase in excretion, Total Urine [10]: 137.53%

Source: patent US11684614B2, “Formulations of hydroxypyridonate actinide/lanthanide decorporation agents” (priority 2017, dated 2023)
